Results: a melting point compilation (Tetko et al.; mined from patent text by program, amines drawn as free bases though some values may be those of a salt)

| SMILES | melting point [°C] |
| --- | --- |
| COc1ccc(C(=O)Nc2ccc3ccc(Oc4ccc(Cl)c(Cl)c4)nc3n2)cc1 | 180 |
| COC(=O)C1CC2=C(CO1)C(=O)c1cc3ccccc3c(OC(C)=O)c1C2=O (configuration not stated) | 196 to 198 |
| CC12CCC(OC(=O)c3ccc(Cl)cc3)CC1=CCC1C2CCC2(C)C(=NO)CCC12 (configuration not stated) | 167 to 170 |
| NC(=O)Nc1cccc2c1C(=O)c1c-2n[nH]c1-c1ccsc1 | > 280 |
| Nc1cccc(Cn2c(-c3ccc(NC(=O)c4ccccc4)cc3)ccc2-c2ccccc2Cl)n1 | 196 to 198 |
| O=[N+]([O-])c1ccc(CF)cc1 | 33 to 34 |
| CN(C)CCCCCCNCc1ccc(-c2cc3ncnc(Nc4ccc5[nH]ccc5c4)c3s2)cc1 | 134 to 148 |
| O=C(c1cc(I)c(O)c(I)c1)c1c(Cc2ccccc2)oc2ccccc12 | 153 to 154 |
| CCOC(=O)N1CCN=C1CC(c1ccccc1)c1ccccc1 | 78 to 80 |
| O=C(O)c1ccc(C=CC(=O)N2CCc3c([nH]c4ccccc34)C2c2ccc3c(c2)OCO3)cc1 (configuration not stated) | 254 to 256 |
| Nc1nc(O)c2c(n1)NCC(CCc1ccc(C(=O)N[C@@H](CCC(=O)O)C(=O)O)cc1)C2 (some centres not stated) | > 250 |
| CN(C)c1ccc(NC(=O)[C@@H](Cc2ccccc2)NC(=O)CCC(=O)O)cc1 | 197 to 198 |
| Cn1c(C(F)(F)F)cc(=O)n(-c2cc(OC(=O)CCl)c(Cl)cc2F)c1=O | 89 to 92 |
| COc1cc2cc3c(=O)c(C#N)c[nH]c3cc2cc1O | > 300 |
| CCOC(=O)c1cnc(-c2cc3cccc(NS(=O)(=O)c4cccs4)c3n2COC)s1 | 133 to 134 |
| Clc1cccnc1-c1cc(OCCc2ccccn2)c2[nH]nc(Nc3nccs3)c2c1 | 185 to 187 |
| C#Cc1cc(Nc2ncnc3cnc(C)cc23)ccc1F | 225 |
| COC(=O)c1cccc(OC)c1OCCC#N | 74 to 75 |
| C[C@H]1N(C(=O)OCc2ccccc2)COC1(O)c1ccc(OCc2ccccc2)cc1 (some centres not stated) | 82 to 86 |
| COc1ccccc1-c1ccc(OCC(=O)Nc2cscc2C(=O)O)nc1 | 194 to 197 |
| Fc1ccc(-c2[nH]cc(C3=CC4CCC(C3)N4)c2-c2ccncc2)cc1 (configuration not stated) | 212 to 213 |
| N#CCCCCCCNc1ccc(O)cc1 | 75 to 76 |

| SMILES | melting point [°C] |
| --- | --- |
| CCOC(=O)c1nccn1Cc1ccccc1[N+](=O)[O-] | 107 to 111 |
| CC(C)c1ccc(NC(=O)C2CCCc3c(OCc4ccccc4)cccc32)cn1 (configuration not stated) | 157 |
| CC1CC(=O)NN=C1c1ccc2[nH]c(-c3ccnnc3)cc2c1 (configuration not stated) | 293 to 295 |
| COc1ccc(CC2CCC3=C(CCC(=O)N3)C2)cc1 (configuration not stated) | 176 to 177 |
| CCOC(=O)c1ccccc1CN1C(=O)C(CCOc2ccc(CCNC(=O)OC(C)(C)C)cc2)Oc2ccccc21 (configuration not stated) | 103 to 105 |
| COc1nnccc1-c1ccccc1OCC(O)CNC(C)(C)C (configuration not stated) | 110 |
| COc1ccc(Cn2c(S(=O)(=O)Cc3ccc(C)cn3)nc3cscc32)cc1 | 148 to 150 |
| CCCS(=O)(=O)ON=C(Cl)c1ccc(C)cc1 | 57.5 to 60.5 |
| O=C1O[C@@H](Cn2ccnn2)CN1c1ccc(-c2ccc(C3=NOC(CNCCc4ccncc4)C3)nc2)c(F)c1 (some centres not stated) | 181 |
| COc1ccc(C(=O)Nc2ccc(C(C)(C)c3noc(COc4ccccc4)n3)cc2)cc1OC | 165 to 167 |
| CCC(Nc1ccc(Br)cc1)n1nnc2ccccc21 (configuration not stated) | 132 |
| S=C(Nc1ccc(Cl)cn1)N[C@@H]1C[C@@H]1c1ccccc1 | 190 to 191 |
| c1ccc(C(OC2CCN(CCCCNc3ccc4ncnn4n3)CC2)c2ccccc2)cc1 | 102 to 104 |
| CCOc1ccc(CCN(C(=O)O)C(=O)[C@H](CCSC)NC(C)=O)cc1OCC | 85 to 90 |
| NC(=O)N1CCC[C@@H]1C#CCN1CCCC1 | 117 to 122 |
| CCCn1c(=O)c2[nH]c(-c3ccc(C(=O)N(CC)CC)o3)nc2n(CCC)c1=O | 247 to 250 |
| COC(=O)c1ccc(C2C(C#N)=C(CC(C)C)NC(C)=C2C(=O)OC(C)(C)C)cc1 (configuration not stated) | 191 to 193 |
| NS(=O)(=O)c1cc(C(=O)O)cc(SCc2ccco2)c1Oc1ccccc1 | 214 to 216 |
| O=C1c2ccccc2C(=O)N1OCC1OC(n2ccc(=O)[nH]c2=O)CC1O (configuration not stated) | 241 to 242 |
| CC(C)(NC(=O)OCc1ccccc1)C(=O)NC(c1ccccc1)c1ccccc1 | 157 to 159 |
| CCC(CC)Nc1ccc2c(c1)N1CCCN=C1S2 | 114 |

The next lines start with the values.

| melting point [°C] | SMILES |
| --- | --- |
| 88 | Cc1ccc(Cn2nc(CCl)cc2-c2ccc(Cl)c(Cl)c2)cc1Cl |
| 172 to 176 | CSc1cc(C)nc(SC)c1[N+](=O)[O-] |
| 156 to 160 | Cc1cc(C)n(-c2cnc(CN)c(Nc3ccc(Cl)cc3)n2)n1 |
| 234 to 236 | COc1cc2ncc(C#N)c(Nc3cc(C)c(O)c(C)c3)c2cc1OC |
| 106 to 108 | COCCOc1ccc(/C=C/C(=O)O)c(OCC2CCCO2)c1 (configuration not stated) |
| 80 to 82 | Nc1ccc(CCCCC(=O)O)nc1 |
| 136 | COc1ccc(-c2cc(COS(C)(=O)=O)c(=O)n(CC=Cc3ccc(Cl)cc3)n2)cc1F |
| 186 to 188 | COc1cc(C)nc(NC(=S)NS(=O)(=O)c2ccccc2Cl)n1 |
| 82 to 84 | CCOC(=O)C1=Cc2cc(-c3ccc(C)cc3)ccc2OC1C (configuration not stated) |
| 150 to 158 | Cc1cc(C=CC(=O)O)c(Cl)nc1C |
| 126 to 129 | Cc1cc(OCc2ccccc2)ccc1C(=O)O |
| 188 | O=C(O)c1c([N+](=O)[O-])ccc2c1OCCO2 |
| 82 to 83 | CCOC(=O)c1ccc(/C=C(\CC)c2ccc3c(c2)C(C)(C)CCC3(C)C)cc1 |
| 93 to 95.5 | CCOC(=O)c1cccc2c1CCC2C#N (configuration not stated) |
| 145 to 146 | CN(c1ccccc1)c1ncccc1NC(=O)c1ccccc1Cl |
| 115 to 116 | CC(=O)SC(CC(=O)c1ccccc1Cl)C(=O)O (configuration not stated) |
| 220 | O=C(O)C(c1ccc(Cl)cc1)c1c(Cl)cc(-n2ncc(=O)[nH]c2=O)cc1Cl (configuration not stated) |
| 109 to 111 | C#CCNC(=O)c1c(I)cccc1[Si](C)(C)C |
| 164 to 166 | Cc1nc(C)c(-c2ccnc(Nc3ccc(N4CCOCC4)c(C)c3)n2)s1 |
| 252 to 253 | Cc1nc(-c2ccc([N+](=O)[O-])cc2)sc1C(=O)O |
| > 200 | NC(=O)c1cc(-c2ccc(Cl)cc2)[nH]c1Cl |
| 226 | Cc1ccc(S(=O)(=O)NC(=O)OCCc2ccc(-n3c(C(C)(C)C)nc4c(C)nc(C)cc43)cc2)cc1 |
| 63.5 to 69.4 | CNC(=O)OCC(C)Nc1ncc(Oc2cc(Cl)c(OC)cc2C(C)C)c(N)n1 (configuration not stated) |
| 91 to 92 | CC(=O)Sc1cc(-c2ccc(C(F)(F)F)n(C)c2=O)c(F)cc1Cl |
| 159 to 161 | Cc1noc(C)c1-c1cn(Cc2ccccc2)c(=O)c2ccncc12 |
| 150 to 152 | COC(=O)c1ccc2cc(-c3cccc(OC)c3)oc2c1 |
| 146 to 148 | COC1=CC(=O)c2c(C)cc(C)cc2C1=O |
| 193 to 195 | Cc1nc(C#N)ccc1OC1SCC(O)C(O)C1O (configuration not stated) |
| 156 to 158 | CC(=O)n1nc(-c2ccncc2)nc1-c1ccncc1 |
